The test system of the assay is SW 1271 complex spheroids, viability. As to the kind of experiment: Anticancer human tumor SW 1271 cell line growth inhibition [LSD1].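 On all read-outs here: spheroids exposed to agents for 7 days before luminescence read.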 The settings on record: for viability, T/C: stronger effect = lower value. The text has this:
Multicellular complex tumor spheroid response to LSD1 Inhibitor Iadademstat in combination with a variety of drugs and investigational agents in selected tumor cell lines
The current study was undertaken to assess response to LSD1 inhibitors in combination with standard-of-care drugs and investigational agents in solid tumor complex spheroid models as well as in the K-562 leukemia. Complex spheroids include a stromal component modeled by human endothelial cells (HUVEC) and fibroblasts modeled by human mesenchymal stem cells (MSCs). The concentration ranges selected for each drug and investigational agent were based upon clinically achievable concentrations if the clinical Cmax of the agent was known.
Compounds. The drugs and investigational agents used in this study are listed on Table 1. All of the agents used, including staurosporine (NSC755774) and gemcitabine (NSC613327), were obtained from the Developmental Therapeutics Program, NCI. FDA-approved anticancer drugs are available from the NCI at http://dtp.nci.nih.gov/branches/dscb/oncology_drugset_explanation.html. Drugs and investigational agents were >95% pure by proton nuclear magnetic resonance (NMR) and liquid chromatography/mass spectrometry (LC/MS). Stock solutions were prepared at 400x in DMSO, stored at -70 degrees C, and diluted in fresh medium prior to their use. The final concentration of DMSO in cell culture wells never exceeded 0.25% (v/v). The FDA-approved anticancer drug set is available from the Developmental Therapeutics Program at https://dtp.cancer.gov/organization/dscb/obtaining/available_plates.htm. All drugs and investigational agents were tested over a range starting from a high concentration at or near the clinical Cmax and decreasing in half-log increments. If the clinical Cmax for an agent had not been determined, the highest concentration tested was 10 microM.
Cell Lines. The patient-derived cancer cell (PDC) lines: 292921-168-R-J2-PDC, K24384-001-R-PDC, and 521955-158-R2-J5-PDC pancreatic carcinomas, 556581-035-R-J1 ovarian carcinoma, 324938-238-R-J1-PDC, 855422-203-R-J1-PDC and 883617-216-R-J1-PDC urothelial bladder carcinomas, 743489-274-T-PDC renal cell carcinoma, 138582-R-J1 Merkel cell tumor, K60290-347-R-J1 and K57222-313-R-J1-PDC glioblastomas, 653999-131-R-J2-PDC, LG0703-F948-PDC, and 349418-098-R-PDC non-small cell lung carcinomas, 885512-296-R-J2-PDC, 171881-019-R-J1-PDC breast carcinomas and 186277-243-T-J2-PDC and 233499-124-R-J2-PDC colon carcinomas were obtained from the NCI Patient-Derived Models Repository (PDMR, https://pdmr.cancer.gov). The established cell lines NCI/ADR-RES (RRID:CVCL_14520 and OVCAR-5 (RRID:CVCL_1628) ovarian carcinomas, 786-O (RRID:CVCL_1051) and A498 (RRID:CVCL_A498) renal cell carcinoma, NCI-H211 (ATCC, cat. CRL-5824; RRID:CVCL_1529), NCI-H196 (ATCC, cat. CRL-5823, RRID:CVCL_1509), SW 1271 (ATCC, cat. CRL-2177, RRID:CVCL_1716) and NCI-H1876 (ATCC, cat. CRL-5902, RRID:CVCL_1503) small cell lung carcinomas, MDA-MB-231 (RRID:CVCL_0062) and MDA-MB-468 (RRID:CVCL_0419)breast carcinomas (10-12). Pooled donor human umbilical vein endothelial cells (HUVEC, Lonza, cat. CC-2519) and human mesenchymal stem cells (hMSC, Lonza, cat. PT-2501) were purchased from Lonza (Walkersville, MD).
Cell Culture. All cells were maintained in an incubator at 37 degrees C and 5% CO2 with 95% humidity. The PDC lines were cultured according to standard operating procedures established by the NCI PDMR (https://pdmr.cancer.gov). Briefly all PDCs were thawed and cultured in Matrigel-coated flasks prepared with a working solution of 1X Ham's F-12 nutrient mix, without supplementation (Invitrogen, Waltham, MA, cat. 11765054), 100 U/mL penicillin-streptomycin (Invitrogen, cat. 15140122), and 2.5% Matrigel (Corning Inc., Corning, NY, cat. 354248) for the first three passages. […]

Values joined by “and” are separate entries in the source; they are usually repeats but may differ in a detail not shown here. Equal values may be shown once. Where only a bound is given, the exact number is not on record here.

The viability, T/C is the result in the treated group divided by that in the control group, in per cent. Broadly, the IC50 is the concentration that inhibits the measured activity by half. In the case of `CC(C)c1c(-c2ccccc2)nc2c(C#N)c[nH]n2c1=O`, the viability, T/C reads like this: (compound 0.0316 µM) 85.1% and 98.1%; (compound 0.1 µM) 83.1% and 98.6%; (compound 0.316 µM) 83.4% and 100%; (compound 1 µM) 89.3% and 88.1%; (compound 3.16 µM) 86.2% and 91.6%; (compound 10 µM) 75.1% and 94.7%. For the same compound, for the setting “curve of compound”, the IC50 is over 10000 nM.
Regarding `CC1(C)CCC(CN2CCN(c3ccc(C(=O)NS(=O)(=O)c4ccc(NCC5CCOCC5)c([N+](=O)[O-])c4)c(Oc4cnc5[nH]ccc5c4)c3)CC2)=C(c2ccc(Cl)cc2)C1`, the viability, T/C by setting is: (compound 0.0316 µM) 93.1% and 103%; (compound 0.1 µM) 97.7% and 112%; (compound 0.316 µM) 87.7% and 98.3%; (compound 1 µM) 101% and 102%; (compound 3.16 µM) 28.1% and 55.8%; (compound 10 µM) 0.45% and 4.57%. The half-maximal inhibitory concentration (IC50) (curve of compound) was 2170 nM and 3600 nM.
Regarding `CC1COCCN1c1cc(C2(S(C)(=N)=O)CC2)nc(-c2ccnc3[nH]ccc23)n1` (centres undefined), the viability, T/C was 106% and 85.9% (compound 0.0316 µM); 97% and 88.6% (compound 0.1 µM); 88.2% and 78.9% (compound 0.316 µM); 79% and 65.3% (compound 1 µM); 62% and 54.3% (compound 3.16 µM); 62.1% and 39.4% (compound 10 µM). In addition, under “curve of compound”, the IC50 was > 10000 nM and 3980 nM.
Turning to `CCN(c1cc(-c2ccc(CN3CCOCC3)cc2)cc(C(=O)NCc2c(C)cc(C)[nH]c2=O)c1C)C1CCOCC1`, the viability, T/C was 98.8% and 104% (compound 0.00949 µM); 116% and 109% (compound 0.03 µM); 90.8% and 91.2% (compound 0.0949 µM); 103% and 98.9% (compound 0.3 µM); 78.3% and 82.5% (compound 0.949 µM); 73.6% and 71.4% (compound 3 µM). In addition, the IC50 (curve of compound) was over 3000 nM.
Regarding `COc1cc(C2c3cc4c(cc3C(OC3OC5COC(C)OC5C(O)C3O)C3COC(=O)C23)OCO4)cc(OC)c1O` (centres undefined), the viability, T/C (compound 0.00949 µM) was 84.9% and 100%; the viability, T/C (compound 0.03 µM) is 79.2% and 82.9%; the viability, T/C (compound 0.0949 µM) is 72.4% and 64.1%; the viability, T/C (compound 0.3 µM) was 83.9% and 64.4%; the viability, T/C (compound 0.949 µM) is 62.5% and 66.3%; the viability, T/C (compound 3 µM) is 54.7% and 53.3%. For the same compound, the concentration for half-maximal inhibition (IC50) (curve of compound) was over 3000 nM.
Consider `COc1ccc([C@@H](O)c2cc(-c3ncnc4cc(N5CCOCC5)ccc34)c(F)cc2Cl)nn1`, for which the viability, T/C (compound 0.0316 µM) was 79.9% and 85.5%; the viability, T/C (compound 0.1 µM) was 74.7% and 91.9%; the viability, T/C (compound 0.316 µM) is 54.5% and 64%; the viability, T/C (compound 1 µM) was 40.4% and 45.4%; the viability, T/C (compound 3.16 µM) was 31.7% and 28.2%; the viability, T/C (compound 10 µM) is 20.3% and 21.4%. Further, the IC50 (curve of compound) is 523 nM and 741 nM.
`NC1CC1c1ccc(-c2cccc(O)c2)cc1` (centres undefined): the viability, T/C by setting is: (compound 0.1 µM) 86.2%; (compound 10 µM) 63.2% [middle of 25 runs]. Also, for the setting “compound alone, run of 02/21/2022”, the IC50 was over 10000 nM.
Take `NC1CCC(NC2CC2c2ccccc2)CC1` (centres undefined): the viability, T/C (compound 0.316 µM) is 77.1% and 85.3%. In addition, the IC50 (compound alone, run of 02/15/2022) is over 10000 nM.
For `NS(=O)(=O)OCC1CC(n2ccc3c(NC4CCc5ccccc54)ncnc32)CC1O` (centres undefined), the viability, T/C by setting is: (compound 0.00949 µM) 159% and 149%; (compound 0.03 µM) 127% and 122%; (compound 0.0949 µM) 83.5% and 85.6%; (compound 0.3 µM) 89.7% and 67.7%; (compound 0.949 µM) 73.1% and 74.3%; (compound 3 µM) 82.1% and 73.2%. Also, the IC50 (curve of compound) was over 3000 nM.
As to `Nc1ccccc1NC(=O)c1ccc(CNC(=O)OCc2cccnc2)cc1`, the viability, T/C (compound 0.00949 µM) is 90.7% and 84.4%; the viability, T/C (compound 0.03 µM) was 83.4% and 69.1%; the viability, T/C (compound 0.0949 µM) was 61.4% and 59.8%; the viability, T/C (compound 0.3 µM) was 35.6% and 29.2%; the viability, T/C (compound 0.949 µM) is 10.2% and 7.11%; the viability, T/C (compound 3 µM) was 6.48% and 7.88%. Besides, the IC50 (curve of compound) was 156 nM and 127 nM.
With `O=C(C=Cc1cccc(S(=O)(=O)Nc2ccccc2)c1)NO`, the viability, T/C (compound 0.00949 µM) is 89.7% and 88.1%; the viability, T/C (compound 0.03 µM) is 74.9% and 70.5%; the viability, T/C (compound 0.0949 µM) was 57.1% and 58.1%; the viability, T/C (compound 0.3 µM) was 19.1% and 23.3%; the viability, T/C (compound 0.949 µM) was 9.01% and 12.3%. The IC50 (curve of compound) is 228 nM and 109 nM.
In the case of `O=C(c1cc(Cc2n[nH]c(=O)c3ccccc23)ccc1F)N1CCN(C(=O)C2CC2)CC1`, the viability, T/C reads like this: (compound 0.0316 µM) 84.9% and 80.2%; (compound 0.1 µM) 85.2% and 85.3%; (compound 0.316 µM) 81.4% and 76.1%; (compound 1 µM) 81.5% and 85.4%; (compound 3.16 µM) 90.2% and 77%; (compound 10 µM) 87.5% and 68.8%. Further, the IC50 (curve of compound) is over 10000 nM.
